Among the test systems are SR; K562; HOP-92; LOX IMVI; KM12; A549; HT-29; M14; SNB-19; NCI-H522; U-251; SF-539; HCT-15; SK-MEL-28; RXF 393; PC-3; MDA-MB-435; MDA-MB-231; NCI/ADR-RES.
Assay in all cases: inhibition of tumour cell growth, NCI panel, 48 h

Molecules are shown by their SMILES.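 Compound exposure: 48 hours, 5 concentrations, 96-well plates. Abbreviation: GI50, concentration required for 50% inhibition of growth.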 Calls of active or inactive are those of the source. Cut-off read from the data, not from the text of the source: active = GI50 up to about 1.1 µM and inactive = higher.

For the compound `O=C1OC(c2cccc(C(F)(F)F)c2)c2ccc3ccccc3c21` (stereo not drawn), the GI50 is > 10 µM (inactive) in the experiment with SR; 4.76 µM (inactive) with K562; 91.8 µM (inactive) in the experiment on HOP-92; 8.45 µM (inactive) with LOX IMVI; > 10 µM (inactive) in the experiment on KM12; 36.8 µM (inactive) in the experiment with A549. The GI50 was > 10 µM (inactive) in the experiment on HT-29; > 10 µM (inactive) in the experiment with M14; > 10 µM (inactive) in the experiment with SNB-19; > 10 µM (inactive) in the experiment on NCI-H522; 7.59 µM (inactive) in the experiment on U-251; > 100 µM (inactive) with SF-539. Also, the results for the GI50 in the experiment on HCT-15, in the experiment with SK-MEL-28 and in the experiment with RXF 393 were 8.22 µM, > 10 µM (inactive) and 13.5 µM (inactive), respectively.
Consider `O=C(Nc1cc(Cl)c(Cl)cc1Cl)C(=O)C1C=CCS1(=O)=O` (stereo not drawn), for which the GI50 in the experiment with SR is > 100 µM (inactive); in the experiment on K562, > 100 µM (inactive); with HOP-92, 26.8 µM (inactive); in the experiment with LOX IMVI it was > 100 µM (inactive); in the experiment with KM12, > 100 µM (inactive); with A549, > 100 µM (inactive). The GI50 in the experiment with HT-29, with M14, in the experiment on SNB-19, with NCI-H522, in the experiment on U-251 and in the experiment on SF-539 was > 100 µM (inactive) throughout. Moreover, the GI50 in the experiment with HCT-15 is above 100 µM; in the experiment with SK-MEL-28, > 100 µM (inactive); with RXF 393, > 100 µM (inactive).
Regarding `CC1=CCC(C(C)(C)NC(=O)c2ccccc2)C/C1=N/O` (stereo not drawn), the GI50 is > 100 µM (inactive) with K562; 43.3 µM (inactive) in the experiment on HOP-92; > 100 µM (inactive) in the experiment on LOX IMVI; > 100 µM (inactive) with KM12; > 100 µM (inactive) in the experiment on A549; > 100 µM (inactive) in the experiment on HT-29. Further, the GI50 in the experiment on PC-3, with MDA-MB-435, in the experiment with M14, with MDA-MB-231, with SNB-19 and with NCI-H522 was > 100 µM (inactive) each time. The GI50 is > 100 µM (inactive) with U-251, > 100 µM (inactive) in the experiment with SF-539, above 100 µM in the experiment on HCT-15 and > 100 µM (inactive) in the experiment on SK-MEL-28.
Regarding `CCC(C)(O)c1cn(-c2cccc(S(=O)(=O)O)c2)nn1` (stereo not drawn), the GI50 in the experiment with SR, in the experiment with K562, in the experiment on HOP-92, in the experiment with LOX IMVI, in the experiment with KM12 and with A549 was > 100 µM (inactive) throughout. In addition, the GI50 with HT-29, in the experiment with M14, in the experiment on SNB-19, in the experiment with NCI-H522, with U-251 and with SF-539 was > 100 µM (inactive) each time. In addition, the GI50 is above 100 µM in the experiment on HCT-15, > 100 µM (inactive) in the experiment with SK-MEL-28 and > 100 µM (inactive) in the experiment on RXF 393.
As for `O=C(/N=N/c1ccc([N+](=O)[O-])cc1)NNc1ccc([N+](=O)[O-])cc1`, the GI50 was 15.4 µM (inactive) in the experiment on SR; 11.4 µM (inactive) with K562; 11.2 µM (inactive) in the experiment on LOX IMVI; 26 µM (inactive) in the experiment on A549; 31.3 µM (inactive) with HT-29; 9.62 µM (inactive) in the experiment on PC-3. For the same compound, the GI50 in the experiment with MDA-MB-435 was 12.8 µM (inactive); in the experiment on M14, 13.5 µM (inactive); in the experiment with MDA-MB-231, 24 µM (inactive); with SNB-19, 27 µM (inactive); in the experiment on NCI-H522 it was 17.7 µM (inactive); with U-251 it was 18.9 µM (inactive). Besides, the GI50 is 19.2 µM with HCT-15 and 16.4 µM (inactive) with SK-MEL-28.
Consider `COCCN(CCOC)C(=O)COc1c2cc(C(C)(C)C)cc1Cc1cc(C(C)(C)C)cc(c1OCC(=O)N(CCOC)CCOC)Cc1cc(C(C)(C)C)cc(c1OCC(=O)N(CCOC)CCOC)Cc1cc(C(C)(C)C)cc(c1OCC(=O)N(CCOC)CCOC)Cc1cc(C(C)(C)C)cc(c1OCC(=O)N(CCOC)CCOC)C2`, for which the GI50 in the experiment with SR is 0.352 µM (active); in the experiment with K562, 0.491 µM (active); in the experiment on LOX IMVI, 1.73 µM (inactive); in the experiment with KM12, 0.518 µM (active); in the experiment with A549 it was 0.802 µM (active); in the experiment on HT-29 it was 0.908 µM (active). In addition, the GI50 with PC-3 is 0.659 µM (active); in the experiment with MDA-MB-435, 2.09 µM (inactive); in the experiment with M14, 1.89 µM (inactive); with MDA-MB-231 it was 1.99 µM (inactive); with SNB-19 it was 1.34 µM (inactive); in the experiment with NCI-H522 it was 0.655 µM (active). In addition, the GI50 is 10.7 µM (inactive) with NCI/ADR-RES; 0.53 µM (active) in the experiment with U-251; 2.34 µM (inactive) with SF-539; 2.81 µM with HCT-15; 3.33 µM (inactive) in the experiment with SK-MEL-28; 1.09 µM (active) in the experiment on RXF 393.
Regarding `Cc1cc(C)nc(NS(=O)(=O)c2ccc(NC(=O)c3c4ccccc4nc4ccccc34)cc2)n1`, the GI50 with SR was > 100 µM (inactive); in the experiment with K562, > 100 µM (inactive); in the experiment on HOP-92, > 100 µM (inactive); in the experiment on LOX IMVI, 81.1 µM (inactive); in the experiment on KM12, 47 µM (inactive); in the experiment on A549, > 100 µM (inactive). For the same compound, the GI50 was 50.8 µM (inactive) in the experiment on HT-29; > 100 µM (inactive) in the experiment on PC-3; > 100 µM (inactive) with MDA-MB-435; > 100 µM (inactive) in the experiment on M14; > 100 µM (inactive) with MDA-MB-231; > 100 µM (inactive) in the experiment on SNB-19. Further, the GI50 is 64.3 µM (inactive) in the experiment with NCI-H522; > 100 µM (inactive) in the experiment with NCI/ADR-RES; 69.3 µM (inactive) in the experiment on U-251; > 100 µM (inactive) in the experiment with SF-539; 65.9 µM in the experiment with HCT-15; > 100 µM (inactive) in the experiment with SK-MEL-28.
Consider `COc1ccc(-c2nc(N)nc(-c3cc(C)ccc3O)c2Cl)cc1`, for which the GI50 was > 100 µM (inactive) with SR; > 100 µM (inactive) with K562; 55.1 µM (inactive) with HOP-92; 58.9 µM (inactive) in the experiment on LOX IMVI; 65.5 µM (inactive) in the experiment on KM12; 64.1 µM (inactive) in the experiment with A549. The GI50 in the experiment on HT-29 is > 100 µM (inactive); with M14, 84.1 µM (inactive); in the experiment on SNB-19, 32.9 µM (inactive); in the experiment with NCI-H522, 26.2 µM (inactive); in the experiment with U-251, 39.6 µM (inactive); with SF-539 it was 31.7 µM (inactive). The GI50 was above 100 µM in the experiment on HCT-15, 47.6 µM (inactive) in the experiment on SK-MEL-28 and 37.2 µM (inactive) in the experiment on RXF 393.
As for `O=C(O)C1CCCN(CCc2c[nH]c3ccccc23)C1` (stereo not drawn), the GI50 in the experiment with K562, in the experiment on HOP-92, with LOX IMVI, with KM12, in the experiment with A549 and with HT-29 was > 100 µM (inactive) each time. Also, the GI50 with PC-3, in the experiment with MDA-MB-435, in the experiment with M14, in the experiment on MDA-MB-231, with SNB-19 and in the experiment on NCI-H522 was > 100 µM (inactive) each time. In addition, the GI50 in the experiment with NCI/ADR-RES was > 100 µM (inactive); in the experiment on U-251 it was > 100 µM (inactive); with SF-539, > 100 µM (inactive); in the experiment with HCT-15, above 100 µM; in the experiment with SK-MEL-28, > 100 µM (inactive); with RXF 393, > 100 µM (inactive).
In the case of `COc1ccc2cc(C(C)C(O)c3cc(F)c(F)c(F)c3F)ccc2c1` (stereo not drawn), the GI50 with K562 is 30.8 µM (inactive); in the experiment on HOP-92 it was 18.6 µM (inactive); in the experiment on LOX IMVI it was > 100 µM (inactive); in the experiment with A549, > 100 µM (inactive); in the experiment on HT-29 it was > 100 µM (inactive); in the experiment on PC-3, > 100 µM (inactive). Besides, the GI50 in the experiment with MDA-MB-435 was > 100 µM (inactive); with M14 it was > 100 µM (inactive); in the experiment with MDA-MB-231, > 100 µM (inactive); in the experiment on SNB-19, > 100 µM (inactive); in the experiment on NCI/ADR-RES it was 97.9 µM (inactive); in the experiment on U-251, > 100 µM (inactive). Moreover, the results for the GI50 in the experiment with HCT-15 and with SK-MEL-28 were above 100 µM and > 100 µM (inactive), respectively.
As for `CCOC(=O)CC1(C(=O)OCC)c2[nH]c3ccccc3c2CCN1Cc1ccccc1` (stereo not drawn), the GI50 was 22 µM (inactive) in the experiment with SR; 16.9 µM (inactive) with K562; 17.5 µM (inactive) in the experiment on HOP-92; 18.5 µM (inactive) with LOX IMVI; 17.7 µM (inactive) in the experiment on KM12; 19.5 µM (inactive) in the experiment with A549. Besides, the GI50 in the experiment on HT-29 was 14.4 µM (inactive); with M14, 18.6 µM (inactive); with SNB-19, 38.4 µM (inactive); in the experiment with NCI-H522, 13.2 µM (inactive); with U-251, 15 µM (inactive); in the experiment on SF-539, 19.9 µM (inactive). Moreover, the GI50 in the experiment with HCT-15 is 29.2 µM; with SK-MEL-28, 20.4 µM (inactive); with RXF 393, 17.7 µM (inactive).
Take `CN(C)[C@@H]1C(O)=C(C(=O)NCNCCCC(=O)O)C(=O)[C@@]2(O)C(O)=C3C(=O)c4c(O)cccc4[C@@](C)(O)[C@H]3C[C@@H]12`: the GI50 in the experiment with SR, in the experiment on K562, with HOP-92, in the experiment on LOX IMVI, with KM12 and with A549 was > 100 µM (inactive) each time. Also, the GI50 in the experiment with HT-29, in the experiment with M14, in the experiment on SNB-19, in the experiment with NCI-H522, with U-251 and with SF-539 was > 100 µM (inactive) in each case. Besides, the results for the GI50 in the experiment with HCT-15, in the experiment on SK-MEL-28 and with RXF 393 were above 100 µM, > 100 µM (inactive) and > 100 µM (inactive), respectively.

Values taken from ChEMBL document CHEMBL1201862, “PubChem BioAssay data set” (2004).
